We go through 1 compound from PMC9643649, “Engineering Enzyme Substrate Scope Complementarity for Promiscuous Cascade Synthesis of 1,2‐Amino Alcohols” (Angewandte Chemie (International Ed. in English), 2022).

The target in the experiment is T1, RgnTDC (Mediterraneibacter gnavus, UniProt A7B1V0).
T1 construct: gene RUMGNA_01526; recombinant, purified; construct details only in the supplement
Description: decarboxylation turnover assay of purified enzyme. The experiment is classed as biochemical. The settings on record: native substrate.

For `N[C@@H](Cc1c[nH]c2ccccc12)C(=O)O` [Trp], the “decarboxylation turnover assay of purified enzyme” value was “we observed only a slight decrease in activity on Trp and Phe”.
